IC50 data for four compounds are collected here from patent publication US9279003B2, “Analogs of sodium channel peptide toxin” (priority 2010, dated 2016).

Assay [1] deals with human Nav1.7 (Homo sapiens, UniProt Q15858). The experiment in a line: cell-based. It counts as cell-based.
For assay [2], the system named is Nav1.2 (rBIIa). It counts as cell-based, rat.

Each structure is given as a SMILES string. Where a SMILES comes first, the peptide text is derived from it. Bridges are numbered along the chain shown (N, C = ends). [ ]: non-standard residue; d: D form. NMeL = CN[C@@H](CC(C)C)C(=O)O

Sequence of human Nav1.7 (Q15858 other isoform, or with tags, fused parts or gaps): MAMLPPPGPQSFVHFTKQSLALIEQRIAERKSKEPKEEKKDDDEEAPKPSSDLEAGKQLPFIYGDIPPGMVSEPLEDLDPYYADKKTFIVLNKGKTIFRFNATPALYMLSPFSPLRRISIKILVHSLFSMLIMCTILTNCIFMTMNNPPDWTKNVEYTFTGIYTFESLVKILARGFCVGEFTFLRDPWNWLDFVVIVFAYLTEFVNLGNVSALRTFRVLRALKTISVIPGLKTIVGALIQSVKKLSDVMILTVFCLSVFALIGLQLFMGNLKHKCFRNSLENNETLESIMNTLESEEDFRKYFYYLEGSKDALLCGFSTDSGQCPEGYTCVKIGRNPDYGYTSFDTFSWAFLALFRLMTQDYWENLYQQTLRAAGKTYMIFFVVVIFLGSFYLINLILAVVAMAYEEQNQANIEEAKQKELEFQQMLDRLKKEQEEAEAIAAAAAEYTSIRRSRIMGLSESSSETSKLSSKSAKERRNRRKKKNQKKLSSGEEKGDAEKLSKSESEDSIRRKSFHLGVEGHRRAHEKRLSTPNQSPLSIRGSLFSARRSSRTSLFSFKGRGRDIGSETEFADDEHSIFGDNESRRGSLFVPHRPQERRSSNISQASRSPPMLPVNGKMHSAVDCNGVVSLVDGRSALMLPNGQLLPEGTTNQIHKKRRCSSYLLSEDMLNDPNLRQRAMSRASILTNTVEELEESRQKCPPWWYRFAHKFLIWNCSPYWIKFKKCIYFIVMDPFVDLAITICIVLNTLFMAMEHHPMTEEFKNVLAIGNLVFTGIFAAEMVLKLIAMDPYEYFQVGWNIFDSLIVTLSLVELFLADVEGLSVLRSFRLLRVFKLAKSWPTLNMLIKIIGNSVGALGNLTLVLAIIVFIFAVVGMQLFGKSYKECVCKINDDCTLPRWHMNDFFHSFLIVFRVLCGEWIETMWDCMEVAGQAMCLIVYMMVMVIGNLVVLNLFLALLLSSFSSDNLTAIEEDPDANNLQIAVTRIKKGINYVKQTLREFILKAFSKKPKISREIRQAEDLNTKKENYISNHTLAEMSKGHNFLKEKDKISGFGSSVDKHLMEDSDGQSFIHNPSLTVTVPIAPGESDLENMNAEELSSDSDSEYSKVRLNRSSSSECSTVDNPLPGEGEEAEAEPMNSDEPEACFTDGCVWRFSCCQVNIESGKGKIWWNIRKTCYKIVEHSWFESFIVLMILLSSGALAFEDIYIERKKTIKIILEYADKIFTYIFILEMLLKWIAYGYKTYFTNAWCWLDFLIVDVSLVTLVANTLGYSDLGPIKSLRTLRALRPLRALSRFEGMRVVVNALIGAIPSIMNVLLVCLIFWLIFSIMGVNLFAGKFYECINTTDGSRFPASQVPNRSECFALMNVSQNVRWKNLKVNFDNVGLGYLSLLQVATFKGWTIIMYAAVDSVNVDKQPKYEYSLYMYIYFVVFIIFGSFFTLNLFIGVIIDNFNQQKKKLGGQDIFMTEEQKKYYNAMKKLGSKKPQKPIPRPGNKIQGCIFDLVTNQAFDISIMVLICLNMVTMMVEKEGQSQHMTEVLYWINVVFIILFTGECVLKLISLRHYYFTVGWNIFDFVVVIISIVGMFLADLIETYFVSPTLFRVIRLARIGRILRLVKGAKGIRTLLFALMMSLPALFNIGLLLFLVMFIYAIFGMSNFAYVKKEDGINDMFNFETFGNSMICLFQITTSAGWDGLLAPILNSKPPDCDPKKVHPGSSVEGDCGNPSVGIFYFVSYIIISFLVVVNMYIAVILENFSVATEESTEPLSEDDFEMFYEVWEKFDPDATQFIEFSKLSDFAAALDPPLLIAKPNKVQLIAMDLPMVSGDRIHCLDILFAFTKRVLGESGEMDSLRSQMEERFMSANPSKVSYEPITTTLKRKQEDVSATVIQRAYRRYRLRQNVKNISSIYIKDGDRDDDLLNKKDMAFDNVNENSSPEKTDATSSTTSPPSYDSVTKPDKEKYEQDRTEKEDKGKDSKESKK

What is called IC50 is the midpoint of a concentration-inhibition curve. Read a low IC50 as inhibition by little substance. For the compound `CSCC[C@@H]1NC(=O)[C@H](Cc2c[nH]c3ccccc23)NC(=O)[C@H](CCCCN)NC(=O)[C@H](CCC(N)=O)NC(=O)[C@@H](NC(=O)[C@@H](N)Cc2ccc(O)cc2)CSSC[C@@H]2NC(=O)[C@@H]3CSSC[C@@H](C(=O)N[C@@H](CCCCN)C(=O)N[C@@H](CCCCN)C(=O)N[C@@H](CCCCN)C(=O)N[C@@H](CC(C)C)C(=O)N[C@@H](Cc4c[nH]c5ccccc45)C(=O)O)NC(=O)[C@H](Cc4c[nH]c5ccccc45)NC(=O)[C@H](CC(C)C)NC(=O)[C@H](CCCNC(=N)N)NC(=O)[C@H](CSSC[C@H](NC(=O)[C@H]([C@@H](C)O)NC(=O)[C@H](Cc4c[nH]c5ccccc45)NC1=O)C(=O)N[C@@H](CC(=O)O)C(=O)N[C@@H](CO)C(=O)N[C@@H](CCC(=O)O)C(=O)N[C@@H](CCCNC(=N)N)C(=O)N[C@@H](CCCCN)C(=O)N3)NC(=O)[C@H](C(C)C)NC(=O)[C@H](CC(C)C)NC(=O)CNC(=O)[C@H](CCC(=O)O)NC2=O` [compound 4], the IC50 in assay [1] turned out to be 1.7 ± 0.1 nM; in assay [2], 44.7 ± 15 nM.

Consider `CSCC[C@@H]1NC(=O)[C@H](Cc2c[nH]c3ccccc23)NC(=O)[C@H](CCCCN)NC(=O)[C@H](CCC(N)=O)NC(=O)[C@@H](NC(=O)[C@@H](N)Cc2ccc(O)cc2)CSSC[C@@H]2NC(=O)[C@@H]3CSSC[C@@H](C(=O)N[C@@H](CCCCN)C(=O)N[C@@H](CCCCN)C(=O)N[C@@H](CCCCN)C(=O)N(C)[C@@H](CC(C)C)C(=O)N[C@@H](Cc4c[nH]c5ccccc45)C(=O)O)NC(=O)[C@H](Cc4c[nH]c5ccccc45)NC(=O)[C@H](CC(C)C)NC(=O)[C@H](CCCNC(=N)N)NC(=O)[C@H](CSSC[C@H](NC(=O)[C@H]([C@@H](C)O)NC(=O)[C@H](Cc4c[nH]c5ccccc45)NC1=O)C(=O)N[C@@H](CC(=O)O)C(=O)N[C@@H](CO)C(=O)N[C@@H](C)C(=O)N[C@@H](CCCNC(=N)N)C(=O)N[C@@H](CCCCN)C(=O)N3)NC(=O)[C@H](C(C)C)NC(=O)[C@H](CC(C)C)NC(=O)CNC(=O)[C@H](CCC(=O)O)NC2=O` [compound 8] (H-YCQKWMWTCDSARKCCEGLVCRLWCKKK[NMeL]W-OH; disulfide 2-16, 9-21, 15-25), for which the IC50 in assay [1] is 18 nM; in assay [2] it was 51 ± 10 nM.

Consider `CC[C@H](C)[C@H](NC(=O)[C@H](CC(C)C)N(C)C(=O)[C@H](CCCCN)NC(=O)[C@H](CCCCN)NC(=O)[C@H](CCCCN)NC(=O)[C@@H]1CSSC[C@@H]2NC(=O)[C@H](CCCCN)NC(=O)[C@H](CCCNC(=N)N)NC(=O)[C@H](C)NC(=O)[C@H](CO)NC(=O)[C@H](CC(=O)O)NC(=O)[C@@H]3CSSC[C@H](NC(=O)[C@H](C(C)C)NC(=O)[C@H](CC(C)C)NC(=O)CNC(=O)[C@H](CCC(=O)O)NC(=O)[C@H](CSSC[C@H](NC(=O)[C@@H](N)Cc4ccc(O)cc4)C(=O)N[C@@H](CCC(N)=O)C(=O)N[C@@H](CCCCN)C(=O)N[C@@H](Cc4c[nH]c5ccccc45)C(=O)N[C@@H](CCSC)C(=O)N[C@@H](Cc4c[nH]c5ccccc45)C(=O)N[C@@H]([C@@H](C)O)C(=O)N3)NC2=O)C(=O)N[C@@H](CCCNC(=N)N)C(=O)N[C@@H](CC(C)C)C(=O)N[C@@H](Cc2c[nH]c3ccccc23)C(=O)N1)C(=O)O` [compound 12] (H-YCQKWMWTCDSARKCCEGLVCRLWCKKK[NMeL]I-OH; disulfide 2-16, 9-21, 15-25), for which the IC50 in assay [1] was found to be 528 ± 100 nM; in assay [2], 138 ± 40 nM.

In the case of `CC[C@H](C)[C@H](NC(=O)[C@H](CCCCN)NC(=O)[C@H](CCCCN)NC(=O)[C@@H]1CSSC[C@@H]2NC(=O)[C@H](CCCCN)NC(=O)[C@H](CCCNC(=N)N)NC(=O)[C@H](C)NC(=O)[C@H](CO)NC(=O)[C@H](CC(=O)O)NC(=O)[C@@H]3CSSC[C@H](NC(=O)[C@H](C(C)C)NC(=O)[C@H](CC(C)C)NC(=O)CNC(=O)[C@H](CCC(=O)O)NC(=O)[C@H](CSSC[C@H](NC(=O)[C@@H](N)Cc4ccc(O)cc4)C(=O)N[C@@H](CCC(N)=O)C(=O)N[C@@H](CCCCN)C(=O)N[C@@H](Cc4c[nH]c5ccccc45)C(=O)N[C@@H](CCSC)C(=O)N[C@@H](Cc4c[nH]c5ccccc45)C(=O)N[C@@H]([C@@H](C)O)C(=O)N3)NC2=O)C(=O)N[C@@H](CCCNC(=N)N)C(=O)N[C@@H](CC(C)C)C(=O)N[C@@H](Cc2c[nH]c3ccccc23)C(=O)N1)C(=O)N[C@@H](CC(C)C)C(=O)N[C@@H](Cc1c[nH]c2ccccc12)C(=O)O` [compound 13] (H-YCQKWMWTCDSARKCCEGLVCRLWCKKILW-OH; disulfide 2-16, 9-21, 15-25), the figures for the IC50 in assay [1] and in assay [2] were 3 nM and 50 ± 10 nM, respectively.
